We go through 3 compounds from PMC8199755, “In Vitro and In Vivo Trypanocidal Efficacy of Synthesized Nitrofurantoin Analogs” (Molecules, 2021).

A short description of data set [1]: Cytotoxicity (Cell Counting Kit-8, 3 days). It is filed as cell-based, bovine. As to conditions: bovine, Madin–Darby bovine kidney (MDBK) cells, 37 °C, mean ± SD of triplicate. How it is done: (§1) Additionally, Madin–Darby bovine kidney cells were cultivated (density, 1 × 10^4 cells/mL) in a 96-well cell culture plate (Thermo Fisher Scientific) with the analogs, at seven different concentrations for 3 days at 37 °C. Next, 10 µl of the Cell Counting Kit-8 solution (Dojindo, Kumamoto, Japan) was added into each well […] 4 h of incubation. Absorbance was measured at 450 nm using a GloMax®-Multi+Detection System plate reader.
(§2) The half maximum inhibitory concentration (IC50) of each analog in trypanosomes and the Madin–Darby bovine kidney cells was calculated using the GraphPad Prism version 8 software (GraphPad, Inc., San Diego, CA, USA).

A further data set deals with T. evansi Tansui. Nature of the data set: In vitro trypanocidal activity (CellTiter-Glo, 3 days). Format: cell-based. As to conditions: 72 h, bloodstream forms, 37 °C, mean ± SD of triplicate, read-out: Trypanocidal Activity IC50 ± SD, Tev Tansui. As for the experimental part: (§3) The bloodstream forms of T. b. brucei GUTat3.1, T. b. rhodesiense IL1501, T. b. rhodesiense Chirundu, T. b. gambiense IL1922, and T. evansi Tansui strains were propagated in culture at 37 °C, whereas the T. congolense IL3000 strain was propagated at 33 °C in Hirumi’s modified Iscove’s medium-9, supplemented with 20% heat-inactivated fetal bovine serum. The bloodstream form cultures were maintained by replacing the entire culture supernatant with fresh medium, every other day.
(§4) The trypanocidal activity and cytotoxicity of nitrofurantoin analogs were evaluated according to previous reports, with some modifications. In brief, bloodstream forms adjusted at 2.5 × 10^3 cells/mL (T. b. brucei GUTat3.1, T. b. gambiense IL1922, and T. b. rhodesiense IL1501), 1 × 10^4 cells/mL (T. evansi Tansui and T. b. rhodesiense Chirundu), and 1 × 10^5 cells/mL (T. congolense IL3000), were cultivated in Nunc® MicroWell 96-well optical bottom plates (Thermo Fisher Scientific, Waltham, MA, USA) and exposed to various analogs at seven different concentrations for 3 days, in an incubator at 37 °C (33 °C for T. congolense IL3000). […] Twenty-five microliters of the Cell-TiterGlo® (Promega, Madison, WI, USA) reagent was added into each well, and bioluminescence was measured using a GloMax®-Multi+Detection System plate reader (Promega).
as §2

In data set [2] the test system is T. congolense IL3000. The description is as above. Format: cell-based. The conditions noted are these: Trypanosoma congolense, 72 h, bloodstream forms, 33 °C, mean ± SD of triplicate, read-out: Trypanocidal Activity IC50 ± SD, Tc IL3000. How it is done: as §3, §4, §2
A further data set deals with T. b. gambiense IL1922. Described as above. Format: cell-based. As to conditions: Trypanosoma brucei, 72 h, bloodstream forms, 37 °C, mean ± SD of triplicate, read-out: Trypanocidal Activity IC50 ± SD, Tbg IL1922. As for the experimental part: as §3, §4, §2
The subject of a further data set is T. b. rhodesiense IL1501. The data set is described as above. As to conditions: Trypanosoma brucei, 72 h, bloodstream forms, 37 °C, mean ± SD of triplicate, read-out: Trypanocidal Activity IC50 ± SD, Tbr IL1501. Format: cell-based. As for the experimental part:
as §3, §4, §2

The test system of another data set is T. b. brucei GUTat3.1. The description is as above. Format: cell-based. As to conditions: Trypanosoma brucei, 72 h, bloodstream forms, 37 °C, mean ± SD of triplicate, read-out: Trypanocidal Activity IC50 ± SD, Tbb GUTat3.1. As for the experimental part:
as §3, §4, §2

Data set [3] has as its system T. b. rhodesiense Chirundu. The data set is described as above. It is filed as cell-based. As to conditions: Trypanosoma brucei, 72 h, bloodstream forms, 37 °C, mean ± SD of triplicate, read-out: Trypanocidal Activity IC50 ± SD, Tbr Chirundu. How it is done: as §3, §4, §2
In data set [4] the test system is six species/strains of animal and human trypanosomes. In words: In vitro trypanocidal activity, summary over all strains. Format: cell-based. As to conditions: over the six trypanosome species/strains. As for the experimental part: as §3
The trypanocidal activity and cytotoxicity of nitrofurantoin analogs were evaluated according to previous reports, with some modifications. […] Twenty-five microliters of the Cell-TiterGlo® (Promega, Madison, WI, USA) reagent was added into each well, and bioluminescence was measured using a GloMax®-Multi+Detection System plate reader (Promega).
as §2

The subject of data set [5] is T. congolense IL3000. In words: In vivo treatment efficacy in mice infected with T. congolense. Further details: species or system BALB/c mice. The conditions noted are these: for treatment efficacy against T. congolense infection in vivo: after both oral (10 mg/kg) and intraperitoneal (0.1 mg/kg) administration; for time by which all mice died because of high parasitemia: intraperitoneal injection at 0.1 mg/kg; for time by which all mice died because of high parasitemia / time by which all mice succumbed to high parasite levels: 7 consecutive days from 2 dpi, T. congolense-infected mice; for time by which all mice succumbed to high parasite levels: oral, 10 mg/kg. How it is done:
Healthy female 8-week-old BALB/c mice (CLEA Japan, Inc., Tokyo, Japan) were used in this study. All animals had ad libitum access to normal chow and water.
The virulent T. congolense IL3000 strain was propagated in a mouse and used for infection. The parasites were passaged once in a mouse before the experiment. The experimental mice were intraperitoneally infected with 100 μL of T. congolense in phosphate-buffered saline, containing 10% glucose at 1 × 10^3 cells/mouse. First, the mice were randomly divided into six groups of three mice, each as follows. Group I (no treatment), mice were not infected and were only treated with solvent (10% dimethyl sulfoxide–phosphate–buffered saline). Group II received 3.5 mg/kg of diminazene aceturate treatment. Groups III (9), IV (11), V (12), and VI were treated with nitrofurantoin and the mice were infected and intraperitoneally treated with 0.1 mg/kg of the compound.
In the second experiment, the mice were randomly divided into six groups of three mice, each as follows—group I received no treatment; group II received 3.5 mg/kg of diminazene aceturate treatment; and groups III (9), IV (11), V (12), and VI received nitrofurantoin—the mice were infected and orally treated with 10 mg/kg of the compound.
Treatment was initiated at 2 days post-infection (dpi) and continued for seven consecutive days. The treatments were freshly prepared each day. Parasitemia was observed using a cell counting chamber until 14 dpi.

Data set [6] deals with Madin–Darby bovine kidney cells. Nature of the data set: Cytotoxicity (Cell Counting Kit-8, 3 days). It is filed as cell-based. The conditions noted are these: MDBK cells, 37 °C, mean ± SD of triplicate. How it is done: as §1, §2
Another data set deals with mycobacterial. The arrangement: method as in PMID 32044516. The conditions noted are these: more potent than nitrofurantoin; cited from earlier work.

Each structure is given as a SMILES string. A value given as a limit tells only on which side of the number the result lay.

`CCCCCCCCCCCCN1C(=O)CN(/N=C/c2ccc([N+](=O)[O-])o2)C1=O` [Analog 12, (E)-3-Dodecyl-1-([(5-nitrofuran-2-yl)methylene]amino)imidazolidine-2,4-dione] yielded an IC50 at 3 days in data set [1] above 246000 nM. Also, the IC50 with T. evansi Tansui is 200 ± 17 nM; with T. congolense IL3000 [2], 12 ± 4.5 nM; in the data set with T. b. gambiense IL1922 it was 230 ± 130 nM; in the data set on T. b. rhodesiense IL1501 it was 260 ± 110 nM; with T. b. brucei GUTat3.1, 340 ± 120 nM; in data set [3], 31 ± 11 nM. For the same compound, the IC50 in [4] is below 340 nM. The “treatment efficacy against T. congolense infection in vivo” value with T. congolense IL3000 [5] was “no treatment efficacy”. In the data set with T. congolense IL3000 [5], the “time by which all mice died because of high parasitemia” value was at most 9 dpi. The “time by which all mice succumbed to high parasite levels” value in the data set on T. congolense IL3000 [5] is at most 9 dpi.
Take `CCCCCCCCCCCN1C(=O)CN(/N=C/c2ccc([N+](=O)[O-])o2)C1=O` [Analog 11, (E)-1-([(5-Nitrofuran-2-yl)methylene]amino)-3-undecylimidazolidine-2,4-dione]: the IC50 in data set [6] was above 255000 nM; in the data set with T. evansi Tansui, 160 ± 14 nM; in the data set with T. congolense IL3000 [2], 11 ± 3.5 nM; with T. b. gambiense IL1922, 330 ± 120 nM; in the data set with T. b. rhodesiense IL1501 it was 240 ± 130 nM; with T. b. brucei GUTat3.1, 330 ± 120 nM. The IC50 in [3] was 21 ± 9.4 nM; in [4], below 340 nM. The IC50 at 3 days in data set [1] is above 246000 nM. Moreover, the “treatment efficacy against T. congolense infection in vivo” value in the data set on T. congolense IL3000 [5] is “no treatment efficacy”. Further, the “time by which all mice died because of high parasitemia” value with T. congolense IL3000 [5] was at most 9 dpi. In addition, the “time by which all mice succumbed to high parasite levels” value in the data set with T. congolense IL3000 [5] was at most 9 dpi.
In turn, `CCCCCCCCN1C(=O)CN(/N=C/c2ccc([N+](=O)[O-])o2)C1=O` [Analog 8, (E)-1-([(5-Nitrofuran-2-yl)methylene]amino)-3-octylimidazolidine-2,4-dione] displayed an IC50 at 3 days in [1] of 84700 ± 8990 nM. Moreover, the IC50 with T. evansi Tansui turned out to be 810 ± 82 nM; in the data set with T. congolense IL3000 [2] it was 30 ± 5 nM; in the data set with T. b. gambiense IL1922, 1400 ± 730 nM; in the data set on T. b. rhodesiense IL1501, 1380 ± 820 nM; in the data set on T. b. brucei GUTat3.1, 1890 ± 690 nM; in data set [3], 39 ± 8.4 nM. In the data set with mycobacterial, the “anti-mycobacterial potency relative to nitrofurantoin” value is 30 fold.
